Experimental data taken from ChEMBL document CHEMBL5150077, “Identification of TUL01101: A Novel Potent and Selective JAK1 Inhibitor for the Treatment of Rheumatoid Arthritis” (J Med Chem, 2022).

How the values were obtained:
[1] = organism: Homo sapiens; assay: Selectivity index, ratio of IC50 for inhibition of recombinant human TYK2 to IC50 for inhibition of recombinant human JAK1
[2] = molecular target: T1, Tyrosine-protein kinase JAK3 (Homo sapiens, UniProt P52333); assay: Inhibition of recombinant human JAK3 using GGEEEEYFELVKKKK as substrate incubated for 40 mins in presence of Mg/ATP mixture by [gamma p33]-ATP based scintillation counting method
T1 sequence (P52333 whole entry): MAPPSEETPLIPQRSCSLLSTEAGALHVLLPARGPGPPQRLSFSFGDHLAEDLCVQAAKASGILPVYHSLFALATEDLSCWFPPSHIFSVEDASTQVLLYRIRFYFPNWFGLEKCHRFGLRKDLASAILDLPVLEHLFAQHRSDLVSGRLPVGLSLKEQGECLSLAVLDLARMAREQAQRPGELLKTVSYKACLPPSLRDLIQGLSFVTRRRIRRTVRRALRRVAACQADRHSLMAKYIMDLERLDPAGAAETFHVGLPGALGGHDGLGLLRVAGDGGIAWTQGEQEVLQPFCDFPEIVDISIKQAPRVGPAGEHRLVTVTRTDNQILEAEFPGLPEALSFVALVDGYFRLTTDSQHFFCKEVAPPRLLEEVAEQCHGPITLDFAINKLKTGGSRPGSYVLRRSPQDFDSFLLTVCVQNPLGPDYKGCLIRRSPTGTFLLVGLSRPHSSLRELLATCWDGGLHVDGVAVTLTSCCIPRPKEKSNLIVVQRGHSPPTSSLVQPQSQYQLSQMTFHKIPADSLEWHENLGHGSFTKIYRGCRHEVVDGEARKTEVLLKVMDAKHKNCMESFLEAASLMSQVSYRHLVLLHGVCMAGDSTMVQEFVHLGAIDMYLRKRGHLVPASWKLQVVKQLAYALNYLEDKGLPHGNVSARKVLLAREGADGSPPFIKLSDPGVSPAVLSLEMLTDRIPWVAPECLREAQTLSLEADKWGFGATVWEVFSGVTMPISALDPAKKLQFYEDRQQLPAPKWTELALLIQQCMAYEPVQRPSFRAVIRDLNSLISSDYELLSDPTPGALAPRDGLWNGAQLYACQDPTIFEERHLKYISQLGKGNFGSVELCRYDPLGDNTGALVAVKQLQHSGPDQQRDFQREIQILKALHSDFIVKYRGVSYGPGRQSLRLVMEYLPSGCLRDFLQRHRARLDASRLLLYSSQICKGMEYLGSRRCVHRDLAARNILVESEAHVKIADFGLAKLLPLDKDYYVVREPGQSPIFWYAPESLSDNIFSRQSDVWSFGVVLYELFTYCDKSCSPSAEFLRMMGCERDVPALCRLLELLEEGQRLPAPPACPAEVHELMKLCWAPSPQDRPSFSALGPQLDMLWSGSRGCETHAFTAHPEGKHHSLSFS

[3] = molecular target: Tyrosine-protein kinase JAK1 (Homo sapiens, UniProt P23458); assay: Inhibition of recombinant human JAK1 using MGEEPLYWSFPAKKK as substrate incubated for 40 mins in presence of Mg/ATP mixture by [gamma p33]-ATP based scintillation counting method
[4] = organism: Homo sapiens; assay: Selectivity index, ratio of IC50 for inhibition of recombinant human JAK2 to IC50 for inhibition of recombinant human JAK1
[5] = molecular target: Tyrosine-protein kinase JAK2 (Homo sapiens, UniProt O60674); assay: Inhibition of recombinant human JAK2 using KTFCGTPEYLAPEVRREPRILSEEEQEMFRDFDYIADWC as substrate incubated for 40 mins in presence of Mg/ATP mixture by [gamma p33]-ATP based scintillation counting method
[6] = molecular target: Non-receptor tyrosine-protein kinase TYK2 (Homo sapiens, UniProt P29597); assay: Inhibition of recombinant human TYK2 using GGMEDIYFEFMGGKKK as substrate incubated for 40 mins in presence of Mg/ATP mixture by [gamma p33]-ATP based scintillation counting method
Chain of Non-receptor tyrosine-protein kinase TYK2 (P29597 whole entry): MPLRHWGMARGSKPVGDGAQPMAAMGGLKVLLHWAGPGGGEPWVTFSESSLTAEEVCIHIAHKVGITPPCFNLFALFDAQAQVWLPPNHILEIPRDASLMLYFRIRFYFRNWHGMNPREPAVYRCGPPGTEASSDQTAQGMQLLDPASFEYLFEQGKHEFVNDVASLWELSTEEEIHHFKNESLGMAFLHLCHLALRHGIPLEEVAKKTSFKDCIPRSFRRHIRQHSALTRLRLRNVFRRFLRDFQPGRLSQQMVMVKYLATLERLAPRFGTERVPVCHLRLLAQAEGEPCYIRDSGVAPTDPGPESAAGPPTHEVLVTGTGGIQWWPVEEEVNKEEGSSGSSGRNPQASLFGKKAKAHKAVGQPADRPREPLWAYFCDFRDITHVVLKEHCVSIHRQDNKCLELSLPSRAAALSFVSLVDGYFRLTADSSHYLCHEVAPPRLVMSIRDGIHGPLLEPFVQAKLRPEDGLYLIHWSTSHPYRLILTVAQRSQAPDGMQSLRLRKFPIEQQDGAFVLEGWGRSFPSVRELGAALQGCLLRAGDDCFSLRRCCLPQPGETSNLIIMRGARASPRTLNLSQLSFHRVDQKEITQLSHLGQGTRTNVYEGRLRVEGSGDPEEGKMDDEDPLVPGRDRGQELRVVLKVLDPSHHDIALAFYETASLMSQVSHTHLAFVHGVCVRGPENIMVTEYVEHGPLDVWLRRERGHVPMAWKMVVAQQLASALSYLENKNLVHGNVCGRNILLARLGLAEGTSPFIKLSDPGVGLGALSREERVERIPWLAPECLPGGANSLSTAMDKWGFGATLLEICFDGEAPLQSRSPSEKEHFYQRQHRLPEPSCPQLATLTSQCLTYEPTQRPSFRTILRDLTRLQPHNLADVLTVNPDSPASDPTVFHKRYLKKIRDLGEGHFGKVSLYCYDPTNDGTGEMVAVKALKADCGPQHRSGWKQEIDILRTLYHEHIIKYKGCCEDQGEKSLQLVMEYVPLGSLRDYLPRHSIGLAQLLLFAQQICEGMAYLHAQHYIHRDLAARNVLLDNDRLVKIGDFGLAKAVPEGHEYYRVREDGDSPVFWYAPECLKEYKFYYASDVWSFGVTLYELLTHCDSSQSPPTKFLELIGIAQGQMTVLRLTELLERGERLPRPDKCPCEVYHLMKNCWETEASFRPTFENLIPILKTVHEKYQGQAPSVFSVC

Chain of Tyrosine-protein kinase JAK2 (O60674 whole entry): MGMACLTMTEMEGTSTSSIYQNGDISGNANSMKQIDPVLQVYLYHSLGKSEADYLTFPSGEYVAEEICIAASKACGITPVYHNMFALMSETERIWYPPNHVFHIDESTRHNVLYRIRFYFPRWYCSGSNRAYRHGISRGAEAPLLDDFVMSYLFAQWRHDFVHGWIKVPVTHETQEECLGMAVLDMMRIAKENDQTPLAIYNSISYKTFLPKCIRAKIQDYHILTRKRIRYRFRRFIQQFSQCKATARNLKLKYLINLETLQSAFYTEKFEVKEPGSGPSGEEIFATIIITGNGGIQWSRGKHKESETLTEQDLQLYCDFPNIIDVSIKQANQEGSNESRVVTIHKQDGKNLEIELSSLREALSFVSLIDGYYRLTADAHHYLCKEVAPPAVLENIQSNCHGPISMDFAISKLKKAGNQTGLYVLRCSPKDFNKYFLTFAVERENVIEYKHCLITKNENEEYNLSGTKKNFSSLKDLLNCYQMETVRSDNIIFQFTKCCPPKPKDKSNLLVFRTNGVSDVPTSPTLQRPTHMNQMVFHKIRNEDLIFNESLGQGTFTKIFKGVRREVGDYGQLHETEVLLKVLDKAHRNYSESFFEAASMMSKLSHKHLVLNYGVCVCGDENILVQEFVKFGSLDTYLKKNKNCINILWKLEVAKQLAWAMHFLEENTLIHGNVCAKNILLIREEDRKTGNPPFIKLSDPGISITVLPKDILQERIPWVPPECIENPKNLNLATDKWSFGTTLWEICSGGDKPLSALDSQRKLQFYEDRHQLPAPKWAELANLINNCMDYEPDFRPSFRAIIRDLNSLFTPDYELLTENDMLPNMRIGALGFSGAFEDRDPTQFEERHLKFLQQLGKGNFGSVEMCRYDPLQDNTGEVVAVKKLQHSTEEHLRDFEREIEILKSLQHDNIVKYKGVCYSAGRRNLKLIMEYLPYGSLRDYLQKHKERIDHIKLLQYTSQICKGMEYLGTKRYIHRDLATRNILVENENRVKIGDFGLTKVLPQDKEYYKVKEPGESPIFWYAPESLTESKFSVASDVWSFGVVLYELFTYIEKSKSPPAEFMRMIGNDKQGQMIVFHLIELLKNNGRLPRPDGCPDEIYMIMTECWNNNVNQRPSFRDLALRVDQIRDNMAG
Chain of Tyrosine-protein kinase JAK1 (P23458 whole entry): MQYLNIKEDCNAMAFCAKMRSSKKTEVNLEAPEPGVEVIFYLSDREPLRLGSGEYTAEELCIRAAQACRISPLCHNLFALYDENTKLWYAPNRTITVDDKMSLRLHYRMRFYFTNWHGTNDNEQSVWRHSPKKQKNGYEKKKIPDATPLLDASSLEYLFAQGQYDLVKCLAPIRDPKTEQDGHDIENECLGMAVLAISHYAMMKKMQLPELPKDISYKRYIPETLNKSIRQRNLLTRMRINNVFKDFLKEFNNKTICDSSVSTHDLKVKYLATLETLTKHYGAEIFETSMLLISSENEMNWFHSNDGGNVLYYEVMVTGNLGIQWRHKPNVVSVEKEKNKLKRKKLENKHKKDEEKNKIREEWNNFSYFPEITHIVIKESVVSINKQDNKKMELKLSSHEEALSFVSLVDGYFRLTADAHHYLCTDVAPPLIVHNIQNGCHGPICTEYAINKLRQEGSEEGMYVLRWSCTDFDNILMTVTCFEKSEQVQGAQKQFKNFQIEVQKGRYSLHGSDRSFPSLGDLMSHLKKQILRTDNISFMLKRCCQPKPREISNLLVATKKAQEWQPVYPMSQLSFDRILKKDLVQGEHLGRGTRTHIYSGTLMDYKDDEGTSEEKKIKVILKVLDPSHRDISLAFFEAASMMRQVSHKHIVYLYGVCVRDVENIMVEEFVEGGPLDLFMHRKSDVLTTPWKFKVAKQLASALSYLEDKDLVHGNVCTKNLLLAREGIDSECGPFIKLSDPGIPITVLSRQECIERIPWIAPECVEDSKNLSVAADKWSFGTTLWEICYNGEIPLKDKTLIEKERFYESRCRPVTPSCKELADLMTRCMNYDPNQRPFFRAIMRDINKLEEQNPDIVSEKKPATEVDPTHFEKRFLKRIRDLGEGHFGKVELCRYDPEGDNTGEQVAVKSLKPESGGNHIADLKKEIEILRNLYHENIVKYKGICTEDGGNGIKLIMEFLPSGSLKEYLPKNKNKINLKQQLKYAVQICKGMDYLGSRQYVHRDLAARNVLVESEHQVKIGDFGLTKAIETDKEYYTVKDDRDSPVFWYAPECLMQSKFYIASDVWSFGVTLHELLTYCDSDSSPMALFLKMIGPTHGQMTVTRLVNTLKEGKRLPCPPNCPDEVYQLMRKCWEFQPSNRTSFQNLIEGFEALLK

Row | Ratio IC50 [1] | IC50 [2] [nM] | IC50 [3] [nM] | Ratio IC50 [4] | IC50 [5] [nM] | IC50 [6] [nM] | SMILES
1 | 9.2 | 7350 | 75 | 10.5 | 789 | 692 | O=C(Nc1nc2cccc(C3CCC4(CC3)CCN(C(=O)[C@H]3CC3(F)F)C4)n2n1)C1CC1 (stereo partly drawn)
2 | 2 |  |  | 4.7 |  |  | O=C(Nc1nc2cccc(C3=CCN(C(=O)C4CC4)CC3)n2n1)C1CC1
3 | 3.6 |  |  | 11.9 |  |  | O=C(Nc1nc2cccc(C3=CCC(NC(=O)C4CC4(F)F)CC3)n2n1)C1CC1 (stereo not drawn)
4 | 5.7 |  | 166 |  |  | 942 | O=C(Nc1nc2cccc(C3=CC[C@@H](NC(=O)[C@H]4CC4(F)F)CC3)n2n1)C1CC1
5 | 11.6 | > 10000 | 131 | 20.8 | 2730 | 1530 | O=C(Nc1nc2cccc(C3CCC4(CC3)CCN(C(=O)CC(F)(F)F)C4)n2n1)C1CC1 (stereo not drawn)
6 |  | > 10000 | 63 |  |  | 830 | O=C(Nc1nc2cccc([C@H]3CCC4(C3)CN(C(=O)[C@@H]3CC3(F)F)C4)n2n1)C1CC1
7 |  | > 10000 | 65 |  |  | 371 | N#CCCN1CC2(CCC(c3cccc4nc(NC(=O)C5CC5)nn34)CC2)C1
8 | 5.4 |  |  | 2.1 |  |  | O=C(Nc1nc2cccc(C3=CCN(C(=O)C4(F)CC4)C3)n2n1)C1CC1
9 | 13.2 | 9390 | 63 | 15.8 | 998 | 829 | O=C(Nc1nc2cccc([C@H]3CCC4(CCN(C(=O)[C@@H]5CC5(F)F)CC4)C3)n2n1)C1CC1

The remaining lines, values behind:

Row | SMILES | Ratio IC50 [1] | IC50 [2] [nM] | IC50 [3] [nM] | Ratio IC50 [4] | IC50 [5] [nM] | IC50 [6] [nM]
10 | O=C(Nc1nc2cccc([C@@H]3CCC4(C3)CN(C(=O)[C@@H]3CC3(F)F)C4)n2n1)C1CC1 |  | > 10000 | 176 |  |  | 404
11 | O=C(Nc1nc2cccc(C3CCC(NC(=O)C4CC4(F)F)CC3)n2n1)C1CC1 (stereo not drawn) | 3.3 |  |  | 7.7 |  | 
12 | N#CCC(=O)N1CCC2(CCC(c3cccc4nc(NC(=O)C5CC5)nn34)CC2)CC1 | 1.3 | 2320 | 20 | 4 | 80 | 26
13 | O=C(Nc1nc2cccc([C@@H]3CCC4(CCN(C(=O)[C@@H]5CC5(F)F)CC4)C3)n2n1)C1CC1 | 1.5 | > 10000 | 381 | 5 | 1920 | 570
14 | O=C(Nc1nc2cccc([C@H]3CC[C@H](NC(=O)[C@H]4CC4(F)F)CC3)n2n1)C1CC1 | 16.9 | > 10000 | 341 | 23.7 | 8070 | 5760
15 | N#CCN1CC2(CCC(c3cccc4nc(NC(=O)C5CC5)nn34)CC2)C1 |  | > 10000 | 114 |  |  | 581
16 | O=C(Nc1nc2cccc(C3CCC4(CC3)CCN(C(=O)CC(F)(F)F)CC4)n2n1)C1CC1 | 2.9 | > 10000 | 54 | 5.4 | 294 | 155
17 | O=C(Nc1nc2cccc(C3=CC[C@H](NC(=O)[C@@H]4CC4(F)F)CC3)n2n1)C1CC1 | 6.5 | 5520 | 12 | 11.8 | 141 | 78
18 | O=C(Nc1nc2cccc([C@H]3CC[C@@H](NC(=O)[C@H]4CC4(F)F)CC3)n2n1)C1CC1 | 9.5 | > 10000 | 48 | 20 | 962 | 455
19 | CC(C)(C#N)C(=O)N1CC2(CCC(c3cccc4nc(NC(=O)C5CC5)nn34)CC2)C1 |  | 9670 | 20 |  |  | 106
20 | O=C(Nc1nc2cccc(C3=CC[C@@H](NC(=O)[C@@H]4CC4(F)F)CC3)n2n1)C1CC1 | 8.4 |  | 163 |  |  | 1370
21 | O=C(Nc1nc2cccc(C3=CCN(C(=O)C4CC4(F)F)C3)n2n1)C1CC1 (stereo not drawn) |  | > 10000 |  |  |  | 
22 | N#CC1(C(=O)N2CC3(CCC(c4cccc5nc(NC(=O)C6CC6)nn45)CC3)C2)CC1 |  | > 10000 | 15 |  |  | 18
23 | N#CCC(=O)N1CCC2(CCC(c3cccc4nc(NC(=O)C5CC5)nn34)CC2)C1 (stereo not drawn) | 4.1 | > 10000 | 68 | 7.6 | 520 | 278
24 | O=C(Nc1nc2cccc(C3=CCC(NC(=O)C4CC4)CC3)n2n1)C1CC1 (stereo not drawn) | 3.3 |  |  | 9.5 |  | 
25 | O=C(Nc1nc2cccc(C3=CC[C@H](NC(=O)[C@H]4CC4(F)F)CC3)n2n1)C1CC1 | 4.2 |  |  | 7.4 |  | 
26 | O=C(Nc1nc2cccc([C@H]3CC[C@H](NC(=O)[C@@H]4CC4(F)F)CC3)n2n1)C1CC1 | 9.6 | > 10000 | 181 | 26.3 | 4750 | 1740
